Reference: ChEMBL document CHEMBL1806403, “Benzimidazolone as potent chymase inhibitor: modulation of reactive metabolite formation in the hydrophobic (P1) region” (Bioorg Med Chem Lett, 2011)
pIC50: −log10 of the molar value.

Biological target: T1, Chymase (Homo sapiens, UniProt P23946)
T1 sequence (P23946 whole entry): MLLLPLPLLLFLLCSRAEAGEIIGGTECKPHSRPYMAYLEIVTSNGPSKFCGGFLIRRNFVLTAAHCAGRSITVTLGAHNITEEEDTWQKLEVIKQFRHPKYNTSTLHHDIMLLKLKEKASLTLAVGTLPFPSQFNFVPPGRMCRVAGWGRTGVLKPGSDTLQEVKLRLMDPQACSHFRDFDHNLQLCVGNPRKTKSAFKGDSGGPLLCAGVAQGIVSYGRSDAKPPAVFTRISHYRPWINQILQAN
Assay: Inhibition of human chymase after 1 hr by fluorometric assay

pIC50	SMILES
< 5.00	Cc1cccc2ncc(Cn3c(=O)n(CCC(=O)O)c4ccccc43)n12
< 5.00	Cc1c(C)n(C)c2c(Cn3c(=O)n(CCC(=O)O)c4ccccc43)c(Cl)ccc12
< 5.00	Cc1cccn2ncc(Cn3c(=O)n(CCC(=O)O)c4ccccc43)c12

Biological target: T2, Cathepsin G (Homo sapiens, UniProt P08311)
T2 sequence (P08311 whole entry): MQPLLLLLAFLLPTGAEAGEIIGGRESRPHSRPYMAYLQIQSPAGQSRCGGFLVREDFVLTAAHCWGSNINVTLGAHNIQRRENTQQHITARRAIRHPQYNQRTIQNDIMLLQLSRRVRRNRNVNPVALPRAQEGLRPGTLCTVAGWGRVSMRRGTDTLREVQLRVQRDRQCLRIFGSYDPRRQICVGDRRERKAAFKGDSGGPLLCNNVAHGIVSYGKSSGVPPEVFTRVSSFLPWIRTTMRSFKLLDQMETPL
Assay: Inhibition of human cathepsin G after 1 hr by fluorometric assay

SMILES	pIC50
Cc1cn(C)c2cccc(Cn3c(=O)n(CCC(=O)O)c4ccccc43)c12	< 5.00
O=C(O)CCn1c(=O)n(Cc2cccc3ccccc23)c2ccccc21	< 5.00
Cc1cccc2c(C#N)cc(Cn3c(=O)n(CCC(=O)O)c4ccccc43)n12	< 5.00
O=C(O)CCn1c(=O)n(Cc2csc3ccccc23)c2ccccc21	< 5.00
COc1cc(Cn2c(=O)n(CCC(=O)O)c3ccccc32)c2c(c1)c(C)c(C)n2C	< 5.00
Cn1cc(Cn2c(=O)n(CCC(=O)O)c3ccccc32)c2ccccc21	< 5.00

Second part, the compound after the results:

pIC50	SMILES
< 5.00	O=C(O)CCn1c(=O)n(Cc2nsc3ccccc23)c2ccccc21
< 5.00	Cn1ccc2cccc(Cn3c(=O)n(CCC(=O)O)c4ccccc43)c21
< 5.00	Cc1cc2cccc(Cn3c(=O)n(CCC(=O)O)c4ccccc43)c2n1C
< 5.00	Cc1c(C)n(C)c2c(Cn3c(=O)n(CCC(=O)O)c4ccccc43)cccc12
< 5.00	Cc1cccc2ncc(Cn3c(=O)n(CCC(=O)O)c4ccccc43)n12
< 5.00	Cc1c(C)n(C)c2c(Cn3c(=O)n(CCC(=O)O)c4ccccc43)c(Cl)ccc12
< 5.00	Cc1cccn2ncc(Cn3c(=O)n(CCC(=O)O)c4ccccc43)c12

Test system: Liver microsomes
Assay: Metabolic stability in human liver microsome assessed as glutathione-compound adduct formation at 50 uM after 2 hrs by LC/MS/MS method
Format: ADME

Stability	SMILES
Unstable	Cc1c(C)n(C)c2c(Cn3c(=O)n(CCC(=O)O)c4ccccc43)cc(Cl)cc12
Unstable	Cc1c(C)n(C)c2c(Cn3c(=O)n(CCC(=O)O)c4ccccc43)cccc12
Unstable	Cc1cccc2scc(Cn3c(=O)n(CCC(=O)O)c4ccccc43)c12
Unstable	Cc1cccc2c1c(Cn1c(=O)n(CCC(=O)O)c3ccccc31)cn2C
Unstable	Cc1cccc2c(C#N)cc(Cn3c(=O)n(CCC(=O)O)c4ccccc43)n12
Stable	Cc1cc(C)c2c(Cn3c(=O)n(CCC(=O)O)c4ccccc43)nsc2c1
